Assay results published in patent US9434734B2, “Substituted pyrazoloquinazolinones and pyrroloquinazolinones as allosteric modulators of group II metabotropic glutamate receptors” (Domain Therapeutics, priority 2012, dated 2016).

Legend:
[1] = biological target: T1, human mGluR2 (hmGluR2) transiently over-expressed in HEK-293 cells (Homo sapiens, UniProt Q14416); assay: Human mGluR2 negative allosteric modulator evaluation using Ca++ functional assay (agonist and NAM activity); type: cell-based; settings: hmGluR2 in HEK-293 cells, EC80 glutamate, Fluo4AM calcium readout; read-out: mGluR2 negative allosteric modulator activity IC50
T1 construct: expressed in transfected cells; host or cells: HEK-293 cells, transient co-transfection by electroporation
T1 sequence (Q14416 19-872): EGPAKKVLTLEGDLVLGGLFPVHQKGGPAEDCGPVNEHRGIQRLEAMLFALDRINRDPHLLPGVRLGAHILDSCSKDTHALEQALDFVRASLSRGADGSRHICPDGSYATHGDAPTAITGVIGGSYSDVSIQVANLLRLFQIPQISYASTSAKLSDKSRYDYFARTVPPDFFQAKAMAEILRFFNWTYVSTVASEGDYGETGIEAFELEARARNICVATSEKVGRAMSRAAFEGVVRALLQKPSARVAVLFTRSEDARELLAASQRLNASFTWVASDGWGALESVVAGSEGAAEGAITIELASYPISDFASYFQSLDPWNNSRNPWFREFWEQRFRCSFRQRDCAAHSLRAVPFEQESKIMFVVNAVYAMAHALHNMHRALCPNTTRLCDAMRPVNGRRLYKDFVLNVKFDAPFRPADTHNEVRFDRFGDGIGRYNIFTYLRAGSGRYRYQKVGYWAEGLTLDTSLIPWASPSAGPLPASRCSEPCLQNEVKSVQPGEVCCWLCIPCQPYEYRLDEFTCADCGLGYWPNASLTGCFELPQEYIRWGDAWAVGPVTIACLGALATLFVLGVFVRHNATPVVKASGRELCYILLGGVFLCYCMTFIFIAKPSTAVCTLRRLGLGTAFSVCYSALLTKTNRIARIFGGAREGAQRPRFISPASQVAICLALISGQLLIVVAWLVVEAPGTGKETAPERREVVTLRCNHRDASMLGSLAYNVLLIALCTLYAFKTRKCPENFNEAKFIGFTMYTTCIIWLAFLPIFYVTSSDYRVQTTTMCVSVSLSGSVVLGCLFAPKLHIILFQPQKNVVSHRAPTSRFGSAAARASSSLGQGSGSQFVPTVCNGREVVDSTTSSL
Description: Human mGluR2 Negative Allosteric Modulator Evaluation Using Ca^++ Functional Assay
Compounds of the present invention were tested successively for their agonist and negative allosteric modulator activities on human mGluR2 (hmGluR2) transiently over-expressed in HEK-293 cells. They exert agonist activity if they are able to activate mGluR2 by themselves, i.e., in absence of the endogenous agonist glutamate; and they exert negative allosteric modulator activity if they decrease the action of the endogenous agonist glutamate.
HEK-293 cells were maintained in Modified Eagle's Medium supplemented with 10% Foetal Calf Serum, 1% Penicillin/Streptomycin and 1% nonessential amino acids at 37° C./5% CO2.
Cells were plated after transfection onto polyornithine coated, clear bottom, black-walled, 96-well plates and cultured for 24 h.
Receptor activity was detected by changes in intracellular calcium measured using the fluorescent Ca^2+ sensitive dye, Fluo4AM (Molecular Probes).
The day of the assay, medium was aspirated and replaced during 3 hours by medium without serum supplemented with 1% Glutamax, 1% Penicillin/Streptomycin and 1% nonessential amino acids. Then, cells were washed with freshly prepared buffer B (HBSS 1× (PAA), Hepes 20 mM, MgSO4-7H2O 1 mM, Na2CO3 3.3 mM, CaCl2-2H2O 1.3 mM, 0.5% BSA, Probenecid 2.5 mM) and loaded at 37° C./5% CO2 for 1.5 hours with buffer B containing 1 μM Fluo4AM, 0.1 mg/mL Pluronic Acid, 7 μg/mL Glutamate Pyruvate Transaminase and 2 mM sodium pyruvate. Afterwards cells were washed twice with buffer B and 50 μL of this buffer were added to each well.
Agonist and negative allosteric modulator activities of compounds were consecutively evaluated on the same cells plate. […] Then, the cells were stimulated by an EC80 glutamate concentration and fluorescence was recorded for additional 60 s. EC80 glutamate concentration is the concentration giving 80% of the maximal glutamate response. Agonist and/or negative allosteric modulator activity(ies) were evaluated in comparison to basal signal or signal evoked by EC80 glutamate alone, respectively.
For potency determination, a dose-response test was performed using 8 concentrations of each compound of the invention. Dose-response curves were fitted using the sigmoidal dose-response (variable slope) analysis in GraphPad Prism program (Graph Pad Inc) and EC50 of agonist/IC50 of negative allosteric modulator activity was calculated. Dose-response experiments were all performed in duplicate, two times independently.

Row | SMILES | IC50 [1] [nM] | melting point [°C]
1 | Cl.Nc1ccc(-c2ccc3c(=O)n(CC(F)(F)F)c4cc(C5CCOCC5)nn4c3c2)cn1 [Example 104, 8-(6-Amino-pyridin-3-yl)-2-(tetrahydro-pyran-4-yl)-4-(2,2,2-trifluoro-ethyl)-4H-pyrazolo[1,5-a]quinazolin-5-one] | < 1000 | > 250
2 | Cl.Cn1c(=O)c2ccc(-c3ccc(N)nc3)cc2n2nc(C3CCSCC3)cc12 [Example 83, 8-(6-Amino-pyridin-3-yl)-4-methyl-2-(tetrahydro-thiopyran-4-yl)-4H-pyrazolo[1,5-a]quinazolin-5-one] | < 1000 | > 250
3 | CCCc1cc2n(C)c(=O)c3ccc(-c4ccc(N)nc4)cc3n2n1.Cl [Example 50, 8-(6-Amino-pyridin-3-yl)-4-methyl-2-propyl-4H-pyrazolo[1,5-a]quinazolin-5-one] | < 1000 | > 250
4 | Cc1ncccc1-c1ccc2c(=O)n(C)c3cc(-c4ccnc(C(F)(F)F)c4)nn3c2c1.Cl [Example 135, 4-Methyl-8-(2-methyl-pyridin-3-yl)-2-(2-trifluoromethyl-pyridin-4-yl)-4H-pyrazolo[1,5-a]quinazolin-5-one] | < 1000 | > 250
5 | Cl.[2H]C([2H])([2H])n1c(=O)c2ccc(-c3ccc(N)nc3)cc2n2nc(C3CCCC3)cc12 [Example 67, 8-(6-Amino-pyridin-3-yl)-2-cyclopentyl-4-methyl(D3)-4H-pyrazolo[1,5-a]quinazolin-5-one] | < 1000 | 
6 | Cl.Cn1c(=O)c2ccc(-c3ccc(N)nc3)cc2n2nc(-c3ccc(F)cc3)cc12 [Example 80, 8-(6-Amino-pyridin-3-yl)-2-(4-fluoro-phenyl)-4-methyl-4H-pyrazolo[1,5-a]quinazolin-5-one] | < 1000 | > 250
7 | Cc1cc(-c2cc3n(C)c(=O)c4ccc(-c5cccnc5C)cc4n3n2)cc(C)n1 [Example 113, 2-(2,6-Dimethyl-pyridin-4-yl)-4-methyl-8-(2-methyl-pyridin-3-yl)-4H-pyrazolo[1,5-a]quinazolin-5-one] | < 1000 | 
8 | Cc1cc(-c2ccc3c(=O)n(C)c4cc(-c5ccnc(C(F)(F)F)c5)nn4c3c2)ccn1.Cl [Example 138, 4-Methyl-8-(2-methyl-pyridin-4-yl)-2-(2-trifluoromethyl-pyridin-4-yl)-4H-pyrazolo[1,5-a]quinazolin-5-one] | < 1000 | > 250
9 | Cl.Cn1c(=O)c2ccc(-c3ccc(N)nc3)cc2n2nc(-c3ccco3)cc12 [Example 82, 8-(6-Amino-pyridin-3-yl)-2-furan-2-yl-4-methyl-4H-pyrazolo[1,5-a]quinazolin-5-one] | < 1000 | 218 to 229
10 | Cl.Cn1c(=O)c2ccc(-c3ccc(N)nc3)cc2n2nc(C3CCS(=O)(=O)CC3)cc12 [Example 84, 8-(6-Amino-pyridin-3-yl)-2-(1,1-dioxo-tetrahydro-2H-thiopyran-4-yl)-4-methyl-4H-pyrazolo[1,5-a]quinazolin-5-one] | < 1000 | > 250
11 | Cl.Cn1c(=O)c2ccc(-c3ccc(N)nc3)cc2n2cc(-c3ccccc3)cc12 [Example 110, 8-(6-Amino-pyridin-3-yl)-4-methyl-2-phenyl-4H-pyrrolo[1,2-a]quinazolin-5-one] | < 1000 | > 250
12 | Cc1n[nH]cc1-c1ccc2c(=O)n(C)c3cc(-c4ccccc4)nn3c2c1 [Example 18, 4-Methyl-8-(3-methyl-1H-pyrazol-4-yl)-2-phenyl-4H-pyrazolo[1,5-a]quinazolin-5-one] | < 1000 | 174 to 176
13 | Cn1c(=O)c2ccc(-c3ncco3)cc2n2nc(-c3ccccc3)cc12 [Example 20, 4-Methyl-8-oxazol-2-yl-2-phenyl-4H-pyrazolo[1,5-a]quinazolin-5-one] | < 1000 | 228 to 231
14 | Cc1cc(-c2cc3n(C)c(=O)c4ccc(-c5cc(C)nc(C)c5)cc4n3n2)ccn1 [Example 133, 8-(2,6-Dimethyl-pyridin-4-yl)-4-methyl-2-(2-methyl-pyridin-4-yl)-4H-pyrazolo[1,5-a]quinazolin-5-one] | < 1000 | 
15 | Cc1cc(-c2ccc3c(=O)n(C)c4cc(C5CCOCC5)nn4c3c2)ccn1 [Example 93, 4-Methyl-8-(2-methyl-pyridin-4-yl)-2-(tetrahydro-pyran-4-yl)-4H-pyrazolo[1,5-a]quinazolin-5-one] | < 1000 | 
16 | Cl.[2H]C([2H])([2H])n1c(=O)c2ccc(-c3cc(C)nc(C)c3)cc2n2nc(C3CCCC3)cc12 [Example 68, 2-Cyclopentyl-8-(2,6-dimethyl-pyridin-4-yl)-4-methyl(D3)-4H-pyrazolo[1,5-a]quinazolin-5-one] | < 1000 | 
17 | Cc1cncc(-c2ccc3c(=O)n(C)c4cc(-c5cc(C)nc(C)c5)nn4c3c2)c1 [Example 118, 2-(2,6-Dimethyl-pyridin-4-yl)-4-methyl-8-(5-methyl-pyridin-3-yl)-4H-pyrazolo[1,5-a]quinazolin-5-one] | < 1000 | 
18 | Cn1c(=O)c2ccc(-c3ccc(N)nc3)cc2n2nc(C3CCCCCC3)cc12 [Example 76, 8-(6-Amino-pyridin-3-yl)-2-cycloheptyl-4-methyl-4H-pyrazolo[1,5-a]quinazolin-5-one] | < 1000 | 
19 | Cc1ccc(-c2ccc3c(=O)n(C)c4cc(-c5cc(C)nc(C)c5)nn4c3c2)cn1 [Example 117, 2-(2,6-Dimethyl-pyridin-4-yl)-4-methyl-8-(6-methyl-pyridin-3-yl)-4H-pyrazolo[1,5-a]quinazolin-5-one] | < 1000 | 
20 | Cn1c(=O)c2ccc(-c3ccc(N)nc3)cc2n2nc(C(C)(C)C)cc12 [Example 52, 8-(6-Amino-pyridin-3-yl)-2-tert-butyl-4-methyl-4H-pyrazolo[1,5-a]quinazolin-5-one] | < 1000 | 
21 | Cc1cc(-c2cc3n(C)c(=O)c4ccc(-c5cccnc5C)cc4n3n2)ccn1 [Example 132, 2-(2-methyl-pyridin-4-yl)-4-methyl-8-(2-methyl-pyridin-3-yl)-4H-pyrazolo[1,5-a]quinazolin-5-one] | < 1000 | 
22 | Cc1cc(-c2cc3n(C)c(=O)c4ccc(-c5ccc(N)nc5)cc4n3n2)cc(C)n1 [Example 112, 8-(6-Amino-pyridin-3-yl)-2-(2,6-dimethyl-pyridin-4-yl)-4-methyl-4H-pyrazolo[1,5-a]quinazolin-5-one] | < 1000 | 
23 | Cc1cc(-c2ccc3c(=O)n(C)c4cc(-c5cc(C)nc(C)c5)nn4c3c2)cc(C)n1 [Example 114, 2,8-Bis-(2,6-dimethyl-pyridin-4-yl)-4-methyl-4H-pyrazolo[1,5-a]quinazolin-5-one] | < 1000 | 
24 | Cn1c(=O)c2ccc(-c3cccc(S(N)(=O)=O)c3)cc2n2nc(C3CCOCC3)cc12 [Example 100, 3-[4-Methyl-5-oxo-2-(tetrahydro-pyran-4-yl)-4,5-dihydro-pyrazolo[1,5-a]quinazolin-8-yl]-benzenesulfonamide] | < 1000 | 
25 | CCn1c(=O)c2ccc(-c3cc(C)nc(C)c3)cc2n2nc(C3CCCCCC3)cc12 [Example 78, 2-Cycloheptyl-8-(2,6-dimethyl-pyridin-4-yl)-4-ethyl-4H-pyrazolo[1,5-a]quinazolin-5-one] | < 1000 | 
26 | Cc1ccc(-c2ccc3c(=O)n(C)c4cc(C5CCOCC5)nn4c3c2)cn1 [Example 95, 4-Methyl-8-(6-methyl-pyridin-3-yl)-2-(tetrahydro-pyran-4-yl)-4H-pyrazolo[1,5-a]quinazolin-5-one] | < 1000 | 
27 | Cc1cc(-c2cc3n(C)c(=O)c4ccc(-c5cccnc5)cc4n3n2)cc(C)n1 [Example 116, 2-(2,6-Dimethyl-pyridin-4-yl)-4-methyl-8-pyridin-3-yl-4H-pyrazolo[1,5-a]quinazolin-5-one] | < 1000 | 
28 | Cc1cc(-c2cc3n(C)c(=O)c4ccc(-c5cnccc5C)cc4n3n2)cc(C)n1 [Example 119, 2-(2,6-Dimethyl-pyridin-4-yl)-4-methyl-8-(4-methyl-pyridin-3-yl)-4H-pyrazolo[1,5-a]quinazolin-5-one] | < 1000 | 
29 | Cc1cc(-c2ccc3c(=O)n(C)c4cc(C5CCCO5)nn4c3c2)cc(C)n1 (centres unmarked) [Example 107, 8-(2,6-Dimethyl-pyridin-4-yl)-4-methyl-2-(tetrahydro-furan-2-yl)-4H-pyrazolo[1,5-a]quinazolin-5-one] | < 1000 | 
30 | Cl.[2H]C([2H])([2H])n1c(=O)c2ccc(-c3ccc(N)nc3)cc2n2nc(CCOC)cc12 [Example 55, 8-(6-Amino-pyridin-3-yl)-2-(2-methoxy-ethyl)-4-methyl(D3)-4H-pyrazolo[1,5-a]quinazolin-5-one] | < 1000 | 
